Read-outs that look alike come from different tables or passages of the source.
System: NHL patients (FL, MZL, MCL, DLBCL, transformed indolent lymphoma, CLL)
From the text: Best response status and progression-free survival (hereinafter referred to as “PFS”) from independent review assessment were used for gene expression analysis. A total number of 24 patients including 3 complete responders, 1 confirmed (hereinafter referred to as “CR”) and 2 unconfirmed (hereinafter referred to as “CRu”) and 5 partial responders (hereinafter referred to as “PR”), 11 stable diseases (hereinafter referred to as “SD”) and 5 progressive diseases (hereinafter referred to as “PD”) with follicular lymphoma (hereinafter referred to as “FL”), marginal zone lymphoma (hereinafter referred to as “MZL”), mantle cell lymphoma (“MCL”), diffuse large B-cell lymphoma (hereinafter referred to as “DLBCL”), transformed indolent lymphoma or CLL who had baseline RNA expression profiling data of sufficient quantity and quality were used for gene expression analysis as listed in Table 1 (given in the experimental section).
Bioinformatics and statistical analyses were done for all 24 NHL patients. […] For GSEA, 34 gene sets (vide Tables 2 and 3) sharing key biological function/process in apoptosis, B-cell receptor (hereinafter referred to as “BCR”) signaling, IL6/JAK/STAT3, cytokine/chemokine, MAPK, MYC, MYD88, NFAT, NFkB, NOTCH, PI3K or tumor microenvironment (refs 3 and 4) were selected and generated.
A weighted gene expression score (hereinafter referred to as “WGS”) reflecting the overall expression level for each gene set was generated from logistic regression and Cox proportional hazards models to assess the association with response status (best-response-WGS) and PFS (PFS-WGS), respectively.
Both the best-response-WGS as well as the PFS-WGS were in turn used in logistic regression or Cox regression models to assess the association of either WGS with the endpoints. Moreover, the raw best-response WGS was used to compute non-cross validated AUC estimates for responder (CR+PR) and non-responder (SD+PD) classifications.

Structure (SMILES): COc1c(OCCCN2CCOCC2)ccc2c1N=C(NC(=O)c1cnc(N)nc1)N1CCN=C21 [copanlisib]
- median PFS (CSTB, median gene expression level as cutoff, first printed group (high expression, shorter PFS)): 74 days
- number of patients with CR (of the 24 analyzable patients): 3
- number of patients with PD (of the 24 analyzable patients): 5
- number of patients with PR (of the 24 analyzable patients): 5
- number of patients with SD (of the 24 analyzable patients): 11
- objective response rate (patients with high BCR pathway WGS compared to low): increased
- objective response rate (patients with high PI3K pathway WGS compared to low): increased

From patent publication US20190382839A1, “[…]” (Bayer Pharma Aktiengesellschaft, priority 2016, published 2019)
